Measured values: publication PMC10386076, “Discovery of RC-752, a Novel Sigma-1 Receptor Antagonist with Antinociceptive Activity: A Promising Tool for Fighting Neuropathic Pain” (Pharmaceuticals, 2023)
Where two headings read alike, the source gives them in different places.

Key:
zebrafish embryos = test: In vivo toxicity in zebrafish embryos; set-up: species or system zebrafish (Danio rerio); details: 5 dpf; for embryo phenotype: 0.1 μM and 1 μM; for morphological score: score 5 normal to 0.5 absent; for embryo death at the highest dose: 100 μM
Procedure: The in vivo toxicity was evaluated using the predictive zebrafish animal model, which is suitable for screening drugs for potential toxicity in the nervous, cardiovascular, and digestive system. Zebrafish embryos were exposed to increasing concentrations (from 0.1 to 100 μM) of compounds (R/S)-1c and (R/S)-1d immediately after the eggs’ fertilization. The mortality rate and the kind of developmental deficiencies were evaluated at 5 days post-fertilization (dpf). […] A decrease in the embryo vitality rate and an increase in the entity of damages to the vital structures became more evident at higher concentrations (Figure 7A, Table S2). Compound (R/S)-1c induced embryo death (100% of embryos) at 10 μM, whereas (R/S)-1d caused the death of 5 embryos out of 10 at the same concentration. Moreover, among the living embryos, morphological abnormalities, mainly affecting the shape of the tail, heart, and skin pigmentation, were observed (Figure 7B–E, Table S2). […] Furthermore, the swim bladder was not well inflated, and oedema was evident.
The Tg(GFAP:GFP) zebrafish (Danio rerio) were a kind gift from the Department of Biology, University of Padova (Italy), and were maintained in a re-circulatory system at 28 °C in a light/dark cycle of 14/10 h. They were fed three times a day with dry food and Artemia. The zebrafish embryos and larvae were used for the experiments until 5 days post-fertilization (dpf); mating between 2 females and 1 male was set up the day before the test. The eggs were preserved from predation by adult fish using a plastic separator in the tanks. The eggs were collected right after spawning and used in the teratogenicity experiments. The zebrafish husbandry procedures were performed according to the Directive 2010/63/EU and in compliance with the local animal welfare regulations (authorization n. prot. 18,311/2016; released by the “Comune di Meldola”, 9 November 2016).
The toxicity evaluation was performed as previously reported. Briefly, the eggs were collected, rinsed out with embryo medium (for 1 L of distilled water: 0.1 g sodium bicarbonate, 0.1 g instant ocean, 0.19 g calcium sulphate) and put in different Petri dishes with the same medium; only the unscathed embryos were selected. Generally, 8 embryos per untreated control and treatment concentrations were cultured. The eggs were treated with an increasing concentration of (R/S)-1c and (R/S)-1d, starting from 1 h post-fertilization. They were incubated at 28 °C for about 5 days (without changing the media) in order to allow exposure to the compounds throughout all development stages. The teratogenic effects were evaluated after 5 days from treatment with morphological and viability observations. The experiment was performed in octuplicate, and the data were assessed using a sample score sheet, as reported by Brannen KC and colleagues.

[1] = In vitro metabolic stability in mouse liver microsomes; assay type: in vitro ADME; details: oxidative conditions
Procedure: (§1) The in vitro metabolic stability of compound (R/S)-1d was evaluated in mouse plasma and hepatic microsomes.
Mouse liver microsomes (Sigma Aldrich, CD-1 male, pooled) at 0.5 mg/mL were preincubated with the test compound (R/S)-1d dissolved in DMSO at 1 μM in phosphate buffer 50 mM, pH 7.4, and 3 mM MgCl2 for 10 min at 37 °C [75]. The reaction was then started by adding the cofactor mixture solution (NADP, glucose-6-phosphate, glucose-6-phosphate dehydrogenase in 2% NaHCO3). The samples were taken at 0, 10, 30, 45, and 60 min and added to acetonitrile to stop the reaction (n = 3). The samples were then centrifuged, and the supernatant was analyzed by LC-MS/MS to quantify the amount of compound. A control sample without cofactor was always added to check the chemical stability of the test compound. Two reference compounds of known metabolic stability, 7-ethoxycoumarin (7-EC) and propranolol, were present in parallel testing. A fixed concentration of verapamil was added to every sample as an internal standard for LC-MS/MS analyses. The percentage of the area of the test compound remaining at the various incubation times was calculated with respect to the area of the compound at time 0 min.
The intrinsic clearance (Cli) was calculated by the equation: Cli (μL/min/mg) = k/microsomal conc. × 1000 where k is the rate constant (min^−1) and the microsomal protein conc. = 0.5 mg protein/mL. The rate constant k (min^−1), derived for the exponential decay equation (peak area/IS vs. time), was used to calculate the rate of Cli.
The samples were analyzed under the following conditions: UFLC LC-20 Shimadzu coupled with an API 3200 triple-quadrupole (ABSciex); eluents, (phase A) water + 0.1% trifluoroacetic acid (TFA), (phase B) CH3CN + 0.1% TFA; flow rate, 0.3 mL/min; column, Gemini-Nx 5 μm C18 110A (50 × 2.00 mm) at 35 °C; and injection volume, 5 μL. LC–MS/MS analyses were carried out using an ESI(+) interface in a multiple reaction monitoring mode (MRM). The conditions and MRM transitions applied to the compounds are described in Table 3. […]

mice = test: Formalin-induced licking paw test; assay type: in vivo; details: Mus musculus
Procedure: This is a model of persistent pain in which the nociceptive response produced by formalin is quantified by measuring the time spent by the mouse licking the injected paw. The intraplantar administration of formalin (2%, 20 μL) produces a biphasic nocifensive behavioral response (i.e., biting or licking the injected hind paw). The acute nociceptive phase, reflecting the chemical activation of sensory C-fibers, lasts for the first 5 min, while the second inflammatory phase takes place between 20 and 30 min and corresponds with the development of nociceptive sensitization in the dorsal horn of the spinal cord.
ICR male mice weighing 20–25 g (5 weeks old) and SD rats weighing 200–250 g (7 weeks old) were used in the experiments. […]
The formalin-induced licking paw test was modified from the method described by Dubuisson and Dennis [79]. […] Each mouse was then placed in an individual clear plastic observational chamber (15 × 15 × 15), and the pain response was recorded for a period of 30 min. The summation of time (in seconds) spent in licking and biting responses of the injected paw during each 5 min block was measured as an indicator of the pain response. The first period (early phase) was recorded 0–5 min after the injection of formalin, and the second period (late phase) was recorded 20–30 min after the injection. […] The data were expressed as mean values (SEM). […]

rats = test: Chung's neuropathic pain model (spinal nerve ligation), von Frey mechanical allodynia; assay type: in vivo, rat
Description: This procedure involves the surgical binding or tying off of the left L5 and L6 spinal nerves in rats and causes long-lasting behavioral signs of mechanical allodynia and ongoing pain. Mechanical allodynia refers to the perception of pain caused by normally non-painful stimuli, such as touch or pressure. […] Mechanical stimulation was then induced using von Frey filaments, a set of calibrated nylon fibers that are used to apply mechanical pressure to the skin or other tissues to measure pain sensitivity. The mechanical threshold for pain was established with the “up and down method”.
ICR male mice weighing 20–25 g (5 weeks old) and SD rats weighing 200–250 g (7 weeks old) were used in the experiments. All the animals were purchased from SAMTACO (Osan-si, Korea). Six mice/group and eight rats/group were used for this study. Four groups of mice were utilized for the assessment of the antinociceptive activity in the formalin test (one vehicle and three doses; 1, 10, and 20 mg/kg given i.p.), while five groups of rats were used for the assessment of the antinociceptive activity in Chung’s neuropathic pain model (one vehicle and four doses; 5, 10, 25 and 50 mg/kg given i.p.). The ICR mice and SD rats were maintained on a 12 hr light–dark cycle (light on between 7:00 p.m. and 7:00 a.m.) and allowed free access to food and water. The temperature and humidity of the animal room were maintained at 22 ± 2 °C and 50 ± 5%, respectively. In this study, we followed the national guidelines for conducting animal experiments. […] All efforts were made to minimize animal suffering and reduce the number of animals used.
Ligation of the left L5 and L6 spinal nerves in the rats was used as an experimental model of neuropathic pain. […] The surgical procedure was performed according to the method described by Kim and Chung [80]. The left L5 spinal nerve was isolated and ligated tightly with 6–0 black silk. The wound was closed in anatomical layers, with the skin being closed with stainless steel wound clips. The animals were then allowed to recover after the surgery. The behavioral signs representing neuropathic pain (mechanical allodynia) were examined in all the rats for 2 weeks postoperatively. The mechanical withdrawal threshold to the application of a von Frey filament (Stoelting, Wood Dale, IL, USA) was measured by using the up–down method [81].The most sensitive area was first determined by poking various areas of the paw with a von Frey hair. Next, the actual test was conducted by gently poking various areas of the spot with the filament. […] The frequency of foot withdrawal expressed as a percentage was used as the index of mechanical allodynia. […] The results were calculated using the one-way analysis of variance (ANOVA) followed by Bonferroni’s post hoc test. […]

[2] = In vitro metabolic stability in mouse plasma; assay type: in vitro ADME; details: after 240 min of incubation
Procedure: as §1

Row | SMILES | embryo phenotype (zebrafish embryos) | morphological score (zebrafish embryos; 0.1 μM) | embryo death (zebrafish embryos; 10 μM) | embryo death at the highest dose (zebrafish embryos) | half-life at 1 μM ([1]; male, CD-1, liver microsomes (pooled), pH 7.4, mouse hepatic microsomes 0.5 mg/mL, 1 μM) | Cli ([1]; mouse hepatic microsomes 0.5 mg/mL, 1 μM) | in vitro clearance classification ([1]; mouse hepatic microsomes) | ED50 (mice; read-out: ED50, first phase of the formalin test) | ED50 (mice; mice, i.p. 1, 10, 20 mg/Kg 30 min before formalin, 20–30 min, paw licking time, read-out: ED50, second phase of the formalin test) | time the antinociceptive effect was extended (rats; i.p. 50 mg/Kg) | antinociceptive effect (mechanical allodynia) (rats; i.p. 5 and 10 mg/Kg) | time the antinociceptive effect was sustained (rats; i.p. 25 and 50 mg/Kg) | antinociceptive effect (mechanical allodynia) (rats; i.p. 25 and 50 mg/Kg, 30 min after administration) | compound remaining unaltered [2] | morphological score (zebrafish embryos; 1 μM) | death of embryos (zebrafish embryos; 10 μM) | morphological score (zebrafish embryos; 10 μM)
1 | CN(CCC(CO)c1ccc(-c2ccccc2)cc1)Cc1ccccc1 (centres unmarked) [Compound 1c, 3-([1,1’-biphenyl]-4-yl)-N-benzyl-4-hydroxy-N-methylbutanamine] | normal and vital phenotype | < 4 | 100 % of embryos | death of all the zebrafish embryos | – | – | – | – | – | – | – | – | – | – | – | – | –
2 | OCC(CCN1CCCCC1)c1ccc(-c2ccccc2)cc1 (centres unmarked) [Compound 1d, 2-([1,1’-biphenyl]-4-yl)-4-(piperidin-1-yl)butan-1-ol] | normal and vital phenotype | 5 | – | death of all the zebrafish embryos | 7.2 ± 0.3 min | 192 ± 7 µL/min/mg | high clearance | 13 mg/kg | 2.17 mg/kg | up to 90 min | No significative effect | up to 60 min | restore the normal nociceptive functionality | approximately 100% | 4 | 5 embryos out of 10 | 1
